Assay: siRNA remaining in water (supernatant OD260) after precipitation with cationic lipid
Format: physicochemical
Set-up: unit not given here
Procedure: A nucleic acid/cationic lipid salt was prepared by the following method. Two mg of the cationic lipid was dissolved in 0.1 mL of chloroform in a clean, dry borosilicate clear glass vial and the chloroform was evaporated off by blowing nitrogen gas into the vial and any remaining trace amount of chloroform was removed by drying in vacuo in a vacuum chamber. The vial was removed from the vacuum chamber and 0.1 mL of ethanol was added. The vial was sealed with TEFLON®-lined cap and tightly wrapped with a sealing tape. The vial was vortexed or/and sonicated to dissolve the cationic lipid.
The solution of the cationic lipid in ethanol was added to an aqueous solution containing 1 mg siRNA. The addition of the cationic lipid to the siRNA solution caused immediate aggregation forming a water-insoluble cationic lipid/nucleic acid salt comprised of the cationic lipid and siRNA.
The water-insoluble cationic lipid/nucleic acid salt in a tube was then centrifuged in an Eppendorf microcentrifuge at maximum speed for 15 minutes to form a pellet. The supernatant after each centrifugation were collected and the amount siRNA in the supernatant was measured with OD260.
Table 2 is the summary of measurement of the ratio of siRNA/lipid which rendering siRNA insoluble in water.

Row | siRNA remaining in water (siRNA/lipids ratio 0.5) | siRNA remaining in water (siRNA/lipids ratio 0.75) | siRNA remaining in water (siRNA/lipids ratio 1) | siRNA remaining in water (siRNA/lipids ratio 1.5) | siRNA remaining in water (siRNA/lipids ratio 2) | Structure (SMILES)
1 | 63 | 55 | 45 | 28 | 10 | CCCCCCCC/C=C\CCCCCCCC(=O)OCC(C[N+](C)(C)C)OC(=O)CCCCCCC/C=C\CCCCCCCC.[Cl-] (stereo not drawn) [DOTAP, N-(l-(2,3-dioleoyloxy)propyl)-N,N,N-trimethylammonium chloride]
2 | 61 | 57 | 46 | 29 | 6 | CCCCCCCC/C=C\CCCCCCCCOCC(C[N+](C)(C)C)OCCCCCCCC/C=C\CCCCCCCC.[Cl-] (stereo not drawn) [DOTMA, N-[1-(2,3-dioleyloxy)propyl]-N,N,N-trimethylammonium chloride]

Row | Structure (SMILES) | siRNA remaining in water (siRNA/lipids ratio 0.5) | siRNA remaining in water (siRNA/lipids ratio 0.75) | siRNA remaining in water (siRNA/lipids ratio 1) | siRNA remaining in water (siRNA/lipids ratio 1.5) | siRNA remaining in water (siRNA/lipids ratio 2)
3 | CC(C)CCC[C@@H](C)[C@H]1CC[C@H]2[C@@H]3CC=C4C[C@@H](OC(=O)NCCN(C)C)CC[C@]4(C)[C@H]3CC[C@]12C.Cl [DC-Chol, cholesteryl 3β-N-(dimethylaminoethyl)carbamate hydrochloride] | 72 | 63 | 57 | 35 | 13
